Measured values as given in patent US20090053139A1, “Dendrimer based compositions and methods of using the same” (Regents of the University of Michigan, priority 2006, published 2009).

Legend:
KB cells = test: Inhibition of KB cell growth (XTT assay / total cell protein); format: cell-based, human
Description: Cell culture and treatment.
Evaluation of dendrimer cytotoxicity. Cell growth was determined by assay of the total protein in lysates of treated cells using a bicinchoninic acid reagent (PIERCE, and by XTT assay, using a kit from Roche.
Because the binding of the conjugate to KB cells reaches maximal uptake within 1 h (Quintana et al, 2002. Pharmaceutical Research 19: 1310-1316), the effect of the G5-FI-FA-MTX on cell growth was initially tested by pre-incubation of cells with the conjugate for 1 h, followed by incubation in a drug-free medium for 5 d. […] When the cells were pre-incubated with dendrimers for 4 h, there was a modest decrease of about 10% in cell growth as determined by XTT assay. The cytotoxicity measurements were therefore done by incubation with the dendrimer for a minimum of 24 h, a pre-incubation time period shown to induce significant cytotoxicity.
Time course and dose dependent inhibition of cell growth. Previous studies have shown that MTX-induced cytotoxicity is detectable in vitro only if the medium is completely deprived of FA (See, e.g., Sobrero & Bertino, Int. J. Cell Cloning 4, 51 (1986)). The effect of the trifunctional dendrimers on cell growth was tested in cells incubated in a FA-deficient medium. Cells were treated with 300 nM conjugates (equivalent of 1500 nM MTX) or 1500 nM free MTX for 1-4 days, and cell proliferation was determined by estimation of cellular protein content. […] KB cells which express high and low FAR were incubated with 30 nM of the dendrimers for 1 hr at 37° C., rinsed, and the fluorescence of cells was determined by flow cytometric analysis (See. e.g., FIG. 21, left panel). […]
As the G5-FITC-FA-MTX preparation contained equimolar concentrations of MTX and FA, the effect of similar concentrations of free MTX and free FA on the inhibition of cell growth was determined. […] The cells were rinsed to remove the drugs and incubated with fresh medium for an additional 6 d, and total cell protein was determined. […]

[1] = Toxicity of dendrimer conjugates and free methotrexate in SCID mice; format: in vivo
Text: (§1) Delivery of targeted nanoparticle therapeutic.
Toxicity of dendrimer conjugates. […] No morphologic abnormalities were observed on the histopathology examination.
The remaining experimental groups had very uniform body weight fluctuations nonindicative of toxicity when compared with control groups with saline or conjugate without methotrexate.

human KB xenografts = test: Tumor growth and survival of SCID mice bearing s.c. human KB xenografts; format: in vivo
Description: as §1
Targeted drug delivery to tumor cells through the folate receptor. The efficacy of different doses of conjugates was tested on SCID CB-17 mice bearing s.c. human KB xenografts and was compared with equivalent and higher doses of free methotrexate. […] Six groups of SCID mice with five mice in each group were injected s.c. on one flank with 5×10^6 KB cells in 0.2 mL PBS suspension. The highest total dose of G5-FI-FA-MTX therapeutic used equals 55.0 mg/kg and is equivalent to a 5.0 mg/kg total cumulative dose of free methotrexate (FIG. 29). The therapeutic dose of the conjugate was compared with three cumulative doses of free methotrexate equivalent to 33.3, 21.7, and 5.0 mg/kg accumulated in 10 to 15 injections based on mouse survival. Saline and the conjugate without methotrexate (G5-FI-FA) were used as controls.
The equivalent dose of methotrexate delivered with both targeted conjugates to the surviving mice was higher than the dose of free methotrexate because all of the mice receiving free methotrexate died by day 66 of the trial (FIG. 30). The survival of mice from groups receiving G5-FI-FA-MTX or G5-FA-MTX conjugate indicate that tumor growth based on the end-point volume of 4 cm3 can be delayed by at least 30 days (FIG. 30). This value indicates the antitumor effectiveness of the conjugate because it mimics clinical end-points and requires observation of the mice throughout the progression of the disease. […] The tumor in this mouse was not palpable for the next 20 days up to the 60th day of the trial. […] Thus, in some embodiments, the present invention provides a composition comprising a dendrimer comprising a targeting agent, a therapeutic agent and an imaging agent. In preferred embodiments, the dendrimer is used for delivery, in a target specific manner, of a therapeutic agent (e.g., methotrexate) to tumor cells in vivo.

Structure (SMILES) | reversal of MTX-induced growth arrest by free FA (KB cells; 150 nM FA with 150 nM MTX, 24 h, then 6 d, total cell protein) | liver histopathology ([1]; mouse, in vivo) | toxicity (body weight) ([1]; total dose equivalent to 5.0 mg/kg free methotrexate) | inhibition of cell growth (XTT assay) (KB cells; 1, 2 or 3 days) | growth inhibition of free MTX versus equimolar MTX in conjugate (KB cells; below 1 μM) | effect on tumor growth (human KB xenografts; cumulative dose equivalent to 5.0 mg/kg methotrexate (G5-FI-FA equimolar dendrimer)) | effect on tumor growth (human KB xenografts; free methotrexate cumulative 33.3 and 21.7 mg/kg) | survivors at termination of the trial (human KB xenografts; second 99-day trial)
Nc1nc2ncc(CNc3ccc(C(=O)N[C@@H](CCC(=O)O)C(=O)O)cc3)nc2c(=O)[nH]1 [FA, Folic Acid] | almost completely reversed the growth-arrest caused by 150 nM MTX |  |  |  |  |  |  | 
CN(Cc1cnc2nc(N)nc(N)c2n1)c1ccc(C(=O)N[C@@H](CCC(=O)O)C(=O)O)cc1 [MTX, Methotrexate] |  | advanced liver lesions, collections of inflammatory cells, and periportal inflammation | neither the total accumulated dose of therapeutic conjugate equivalent to 5.0 mg/kg free methotrexate nor free methotrexate at the same dose were toxic | time-dependent cytotoxicity | higher than with the equimolar concentrations of MTX in the G5-FITC-FA-MTX | no effect on tumor growth | affecting tumor growth | no mice surviving
